What all share (type): cell-based, Hepatitis B virus
The test system of experiment [1] is M550I HBV baculovirus. The experiment can be described thus: Antiviral testing with M550I HBV baculovirus in HepG2 cells (Example 15). As to the method:
(§1) HepG2 cells were seeded at approximately 20-40% confluency and then were grown for 16-24 hours before infection. On the day of infection, triplicate plates of cells were trypsinized, and viable cell number was determined with a hemocytometer using Trypan blue exclusion. Average cell counts were calculated and used to determine the volume of high-titer viral stock necessary to infect cells at the indicated moi. HepG2 cells were washed one time with serum-free MEM to remove traces of serum. Baculovirus was diluted into MEM without serum to achieve the appropriate moi using volumes of 1.0, 0.5, and 0.25 ml to infect 100-mm, 60 mm, and 35-mm dishes, respectively. Baculovirus was adsorbed to HepG2 cells for one hour at 37° C. with gentle rocking every 15 minutes to ensure that the inoculum was evenly distributed. The inoculum was then aspirated and HepG2 cells were washed two times with phosphate-buffered saline and refed MEM-FBS with or without various concentrations of agents.
(§2) HBV core particles were isolated from the cytoplasmic fraction of HepG2 cells lysed in 0.5% w/v NP-40. Cytoplasmic extracts were adjusted to 10 mmol/l McC12 and unprotected DNA was removed by an incubation to […] for 1.5 hours at 37° C. Following sequential phenol and chloroform extractions, nucleic acids were recovered by ethanol precipitation. Nucleic acids were resuspended in 50 μl/l TE (10 mmol/l Tris, 1 mmol/l ethylenedianinetetraacetic acid), normalized by OD260, and digested with 100 μg/ml RNase (Boehringer Mannheim, Indianapolis, Ind.) for one hour at 37° C. before analysis by electrophoresis and Southern blotting. A BioRad GS-670 imaging densitometer and the Molecular Analyst software (BioRad, Hecules Calif.) was used to analyze suitable exposures of Southern blots. Densitometry data was fitted to logistic dose response curves using the TableCurve2D software package from Jandel Scientific. Logistic dose response equations were used to calculate IC50 and IC90 values and co-efficients of variation.
(§3) 3TC and PCV were a gift from Klaus Esser, SmithKline Beecham, Collegeville, Pa. PMEA was obtained from Gilead (Foster City, Calif.). 3TC was resuspended in sterile water, aliquoted, and frozen at −20° C. to avoid repeated freezing and thawing of the drug. PMEA was resuspended in sterile water after the pH was adjusted to 7.0 with NaOH. PCV was resuspended in dimethyl sulphoxide. Medium containing 3TC was prepared daily as needed using fresh aliquots of 3TC. In experiments in which 3TC treatment was initiated after viral infection, HepG2 cells were exposed to the indicated concentration of 3TC immediately after infection with HBV baculovirus. In experiments utilizing pretreatment with 3TC, cells were fed medium containing 3TC 16 hours prior to HBV baculovirus infection, HBV baculovirus infection was also carried out in medium containing 3TC, and cells were refed fresh medium containing 3TC immediately after completion of the infection and washing procedures. Treatment with PMEA and PCV were conducted in a similar manner.

The test system of experiment [2] is L526M/M550V HBV baculovirus. Briefly: Antiviral testing with L526M/M550V HBV baculovirus in HepG2 cells (Example 15). As to the method: as §1, §2, §3
The test system of experiment [3] is wild-type (WT) recombinant HBV-baculovirus. The experiment can be described thus: Antiviral testing, wild-type (1.3x genomic length) recombinant HBV-baculovirus in HepG2 cells (Example 17). As to the method:
as §1, §2
(§4) Conditioned medium was collected from HepG2 cells and subjected to centrifugation at 6,000 g for five minutes to remove cellular debris. HBV particles were precipitated with 10% w/v PEG 8000 and were concentrated by centrifugation at 12,000 ×g. Viral pellets were resuspended us 1 ml of MEM-FBS and divided into two aliquots. One set of aliquots was treated with 750 μg/ml Pronase for one hour and then with […] DNase 1 for one hour. Both sets of aliquots were then digested with Proteinase K, and extracted with phenol and chloroform. DNA was precipitated with 0.1 volume of 3 mol/l sodium acetate and 1 volume of isopropanol. Ten micrograms of transfer RNA was added as a carrier during precipitation. Pellets were resuspended in 25 μl of TE and digested with 0.5 mg/ml RNase for one hour. DNA was then analyzed by electrophoresis and Southern blotting.
as §3

The subject of experiment [4] is M550I recombinant HBV-baculovirus. The experiment can be described thus: Antiviral testing, M550I recombinant HBV-baculovirus in HepG2 cells (Example 17). The following applies: Hepatitis B virus, HepG2, intracellular single-stranded HBV DNA, NDR = no dose response, read-out: IC50 (μM), IC SS. As to the method: as §1
(§5) HBV core particles were isolated from the cytoplasmic fraction of HepG2 cells lysed in 0.5% w/v NP-40. […]
(§6) Conditioned medium was collected from HepG2 cells and subjected to centrifugation at 6,000 g for five minutes to remove cellular debris. […] DNA was then analyzed by electrophoresis and Southern blotting. […]

For experiment [5], the system named is L526M/M550V recombinant HBV-baculovirus. Briefly: Antiviral testing, L526M/M550V recombinant HBV-baculovirus in HepG2 cells (Example 17). The following applies: Hepatitis B virus, HepG2, intracellular single-stranded HBV DNA, NDR = no dose response, read-out: IC50 (μM), IC SS. As to the method:
as §1, §5, §6

Experiment [6] concerns Precore/M550I recombinant HBV-baculovirus. The experiment can be described thus: Antiviral testing, Precore/M550I recombinant HBV-baculovirus in HepG2 cells (Example 17). The following applies: Hepatitis B virus, NDR = no dose response. As to the method: as §1, §2
as §4, with “Pellets were resuspended in 25 μl of TE and digested with 0.5 mg/ml RNase for one hour.” left out, “blotting. […]” for “blotting.”

In experiment [7] the test system is Precore/L526M/M550V recombinant HBV-baculovirus. Briefly: Antiviral testing, Precore/L526M/M550V recombinant HBV-baculovirus in HepG2 cells (Example 17). The following applies: Hepatitis B virus, NDR = no dose response. As to the method: as §1, §2
as §4, with “Pellets were resuspended in 25 μl of TE and digested with 0.5 mg/ml RNase for one hour.” left out, “blotting. […]” for “blotting.”

[8] abbreviates: HepG2, extracellular relaxed circular HBV DNA, read-out: IC50 (μM), EC RC.
Where [9] appears, read: HepG2, intracellular single-stranded HBV DNA, read-out: IC50 (μM), IC SS.

Read-outs that look alike come from different tables or passages of the source.

One may read the inhibition as the drop in the measured response relative to a control, in per cent. The IC50 is the concentration at which inhibition is half-maximal. Consider `Nc1ncnc2c1ncn2CCOCP(=O)(O)O` [Adefovir, 9-(2-phosphonylmethoxyethyl)adenine], for which the inhibition at 1 µM in experiment [1] (Hepatitis B virus, HepG2, 550 (M550I) HBV, ds HBV DNA band density vs untreated controls, estimated from fitted curve, negative = stimulation) is 70%; in experiment [2] (Hepatitis B virus, HepG2, dual (L526M/M550V) HBV, ds HBV DNA band density vs untreated controls, estimated from fitted curve, negative = stimulation), 77%. Further, the IC50 worked out at 310 nM in experiment [1] (Hepatitis B virus, 550 (M550I) HBV, ds HBV DNA bands, HepG2 cells, read-out: IC50); 160 nM in experiment [2] (Hepatitis B virus, dual (L526M/M550V) HBV, ds HBV DNA bands, HepG2 cells); 0.0535 µM in experiment [3] (Hepatitis B virus, HepG2, WT, extracellular relaxed circular HBV DNA, averages where footnoted, read-out: IC50 (μM), EC RC); 0.06 µM in experiment [3] (Hepatitis B virus, HepG2, WT, extracellular relaxed circular HBV DNA, individual experiments behind the average, read-out: IC50, single experiments, EC RC); 0.235 µM in experiment [3] (Hepatitis B virus, HepG2, WT, intracellular single-stranded HBV DNA, averages where footnoted, read-out: IC50 (μM), IC SS); 0.25 µM in experiment [3] (Hepatitis B virus, HepG2, WT, intracellular single-stranded HBV DNA, individual experiments behind the average, read-out: IC50, single experiments, IC SS). In addition, the IC50 came to 0.047 µM in experiment [3] (WT, extracellular relaxed circular HBV DNA, individual experiments behind the average, read-out: IC50, single experiments, EC RC); 0.22 µM in experiment [3] (WT, intracellular single-stranded HBV DNA, individual experiments behind the average, read-out: IC50, single experiments, IC SS); 0.94 µM in experiment [4]; 0.93 µM in experiment [5]; 0.09 µM in experiment [6] (setting [8]); 0.28 µM in experiment [6] (setting [9]). Further, the IC50 in experiment [7] (setting [8]) turned out to be 1 µM; in experiment [7] (setting [9]) it was 0.47 µM. The “Resistance Factor” value in experiment [1] ({}) worked out at 4; in experiment [2] ({}), 2. For the same compound, the “change in sensitivity of L526M/M550V” value in experiment [2] (FIG. 8A-8C, result in words) was “no substantial change”.

Values taken from US6969583B2, “Method for detecting variant HBV” (Melbourne Health, priority 2000, dated 2005).
